{"source": "paper PMC4042408", "about": "(ACS chemical biology, 2013)", "key": {"[1]": {"tested_on": "serine hydrolases", "assay": "Competitive ABPP-MudPIT of brain and peripheral tissues", "assay_type": "in vivo, mouse"}, "[2]": {"molecular_target": "T1, HSL (Mus musculus, UniProt P54310)", "T1 sequence (P54310 1-759)": "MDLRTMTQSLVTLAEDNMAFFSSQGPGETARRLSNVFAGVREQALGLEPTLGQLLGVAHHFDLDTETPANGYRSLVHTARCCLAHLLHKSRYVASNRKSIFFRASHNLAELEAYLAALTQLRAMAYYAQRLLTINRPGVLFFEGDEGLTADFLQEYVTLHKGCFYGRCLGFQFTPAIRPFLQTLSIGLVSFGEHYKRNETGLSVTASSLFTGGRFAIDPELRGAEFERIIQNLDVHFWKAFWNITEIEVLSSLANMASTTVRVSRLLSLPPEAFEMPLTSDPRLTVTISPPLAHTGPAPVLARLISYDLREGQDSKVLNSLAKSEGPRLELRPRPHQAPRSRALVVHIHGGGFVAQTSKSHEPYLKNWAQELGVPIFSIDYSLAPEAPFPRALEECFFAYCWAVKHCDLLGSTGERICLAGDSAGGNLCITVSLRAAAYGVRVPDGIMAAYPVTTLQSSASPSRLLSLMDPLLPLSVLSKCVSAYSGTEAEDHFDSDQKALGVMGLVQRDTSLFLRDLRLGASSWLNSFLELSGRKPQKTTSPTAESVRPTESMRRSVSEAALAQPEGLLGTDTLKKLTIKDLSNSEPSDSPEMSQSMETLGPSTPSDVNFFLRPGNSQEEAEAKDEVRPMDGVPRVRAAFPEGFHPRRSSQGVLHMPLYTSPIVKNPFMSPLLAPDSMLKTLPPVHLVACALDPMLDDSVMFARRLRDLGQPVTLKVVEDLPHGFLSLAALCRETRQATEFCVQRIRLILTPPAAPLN", "assay": "Gel-based competitive ABPP", "assay_type": "biochemical"}, "[3]": {"molecular_target": "T2, CES1 (Mus musculus, UniProt Q8VCC2)", "T2 sequence (Q8VCC2 19-565)": "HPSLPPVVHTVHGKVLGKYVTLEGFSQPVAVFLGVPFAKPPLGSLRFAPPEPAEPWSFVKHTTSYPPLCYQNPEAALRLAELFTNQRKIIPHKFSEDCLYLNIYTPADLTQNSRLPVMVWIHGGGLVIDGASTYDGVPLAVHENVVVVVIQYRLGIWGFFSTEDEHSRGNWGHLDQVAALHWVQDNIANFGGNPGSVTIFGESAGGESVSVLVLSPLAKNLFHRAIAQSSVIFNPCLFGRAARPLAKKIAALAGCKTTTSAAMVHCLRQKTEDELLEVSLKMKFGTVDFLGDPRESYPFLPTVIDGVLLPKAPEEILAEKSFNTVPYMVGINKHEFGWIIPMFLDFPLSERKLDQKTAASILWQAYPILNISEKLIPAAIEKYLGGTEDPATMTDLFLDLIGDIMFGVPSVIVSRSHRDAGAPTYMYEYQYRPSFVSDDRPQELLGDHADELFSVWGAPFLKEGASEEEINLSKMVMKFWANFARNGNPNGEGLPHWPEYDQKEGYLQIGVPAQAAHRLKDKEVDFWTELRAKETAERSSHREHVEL", "assay": "Gel-based competitive ABPP", "assay_type": "biochemical"}, "[4]": {"molecular_target": "CES2", "assay": "Gel-based competitive ABPP", "assay_type": "biochemical"}, "[5]": {"molecular_target": "T3, APEH (Mus musculus, UniProt Q8R146)", "T3 sequence (Q8R146 1-732)": "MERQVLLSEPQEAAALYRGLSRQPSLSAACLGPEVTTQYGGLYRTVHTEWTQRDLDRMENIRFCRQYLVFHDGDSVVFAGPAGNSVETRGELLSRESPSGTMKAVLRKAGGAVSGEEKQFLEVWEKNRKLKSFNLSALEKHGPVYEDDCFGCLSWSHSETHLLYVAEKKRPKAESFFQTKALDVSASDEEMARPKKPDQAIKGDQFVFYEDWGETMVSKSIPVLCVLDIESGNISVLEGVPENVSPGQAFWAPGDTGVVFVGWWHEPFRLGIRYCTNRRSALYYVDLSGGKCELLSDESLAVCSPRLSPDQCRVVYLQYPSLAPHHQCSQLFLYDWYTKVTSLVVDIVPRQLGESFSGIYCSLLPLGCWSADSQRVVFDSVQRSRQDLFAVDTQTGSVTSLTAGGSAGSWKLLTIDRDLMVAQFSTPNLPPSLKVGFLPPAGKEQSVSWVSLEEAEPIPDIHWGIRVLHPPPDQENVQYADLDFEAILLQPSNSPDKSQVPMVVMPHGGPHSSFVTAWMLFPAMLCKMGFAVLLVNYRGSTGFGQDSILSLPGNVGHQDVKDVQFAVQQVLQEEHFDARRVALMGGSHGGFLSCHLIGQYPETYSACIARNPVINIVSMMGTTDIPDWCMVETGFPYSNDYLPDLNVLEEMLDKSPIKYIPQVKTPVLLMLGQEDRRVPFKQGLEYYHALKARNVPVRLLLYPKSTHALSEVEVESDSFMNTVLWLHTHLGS", "assay": "Gel-based competitive ABPP", "assay_type": "biochemical", "details": "mouse brain proteome"}, "[6]": {"molecular_target": "T4, ABHD6 (Mus musculus, UniProt Q8R2Y0)", "T4 sequence (Q8R2Y0 1-336)": "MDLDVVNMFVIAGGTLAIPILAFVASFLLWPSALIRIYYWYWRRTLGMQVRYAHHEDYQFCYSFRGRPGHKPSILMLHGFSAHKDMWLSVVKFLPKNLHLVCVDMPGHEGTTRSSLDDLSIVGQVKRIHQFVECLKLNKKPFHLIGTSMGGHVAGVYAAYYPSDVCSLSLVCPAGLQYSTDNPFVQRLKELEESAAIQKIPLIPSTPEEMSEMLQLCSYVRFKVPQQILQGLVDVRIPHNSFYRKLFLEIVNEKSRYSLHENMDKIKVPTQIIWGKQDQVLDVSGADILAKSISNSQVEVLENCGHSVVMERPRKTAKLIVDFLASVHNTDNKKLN", "assay": "Gel-based competitive ABPP", "assay_type": "biochemical"}, "[7]": {"molecular_target": "T5, CES3 (Mus musculus, UniProt Q8VCT4)", "T5 sequence (Q8VCT4 19-565)": "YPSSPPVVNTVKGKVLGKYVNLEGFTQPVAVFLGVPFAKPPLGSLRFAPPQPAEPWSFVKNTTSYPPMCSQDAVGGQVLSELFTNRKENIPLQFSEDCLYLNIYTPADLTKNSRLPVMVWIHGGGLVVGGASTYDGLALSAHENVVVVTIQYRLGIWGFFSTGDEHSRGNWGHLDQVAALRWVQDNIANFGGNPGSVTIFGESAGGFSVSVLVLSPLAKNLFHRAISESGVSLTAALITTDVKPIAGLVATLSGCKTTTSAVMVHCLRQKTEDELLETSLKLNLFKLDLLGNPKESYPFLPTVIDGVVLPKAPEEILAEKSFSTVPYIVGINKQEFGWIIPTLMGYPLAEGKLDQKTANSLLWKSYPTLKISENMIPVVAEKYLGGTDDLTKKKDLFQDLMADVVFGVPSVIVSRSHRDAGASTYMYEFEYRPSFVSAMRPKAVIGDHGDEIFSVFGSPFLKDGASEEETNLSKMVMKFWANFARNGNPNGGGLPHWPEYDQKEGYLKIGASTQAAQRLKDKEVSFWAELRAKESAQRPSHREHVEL", "assay": "Gel-based competitive ABPP", "assay_type": "biochemical"}, "[8]": {"molecular_target": "T6, ABHD3 (Mus musculus, UniProt Q91ZH7)", "T6 sequence (Q91ZH7 1-411)": "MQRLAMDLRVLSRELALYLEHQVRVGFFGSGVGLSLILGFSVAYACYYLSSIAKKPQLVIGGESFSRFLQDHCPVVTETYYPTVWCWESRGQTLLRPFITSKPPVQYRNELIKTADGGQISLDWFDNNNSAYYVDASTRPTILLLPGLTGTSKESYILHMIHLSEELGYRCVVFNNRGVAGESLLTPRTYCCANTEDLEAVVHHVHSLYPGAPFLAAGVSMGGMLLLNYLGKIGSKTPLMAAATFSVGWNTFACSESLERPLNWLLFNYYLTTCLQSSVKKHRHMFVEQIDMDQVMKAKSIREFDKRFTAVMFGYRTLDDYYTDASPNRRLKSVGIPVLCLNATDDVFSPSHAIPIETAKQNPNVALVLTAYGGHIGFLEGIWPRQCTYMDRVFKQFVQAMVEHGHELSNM", "assay": "Gel-based competitive ABPP", "assay_type": "biochemical"}, "[9]": {"molecular_target": "T7, KIAA1363 (Mus musculus, UniProt Q8BLF1)", "T7 sequence (Q8BLF1 1-408)": "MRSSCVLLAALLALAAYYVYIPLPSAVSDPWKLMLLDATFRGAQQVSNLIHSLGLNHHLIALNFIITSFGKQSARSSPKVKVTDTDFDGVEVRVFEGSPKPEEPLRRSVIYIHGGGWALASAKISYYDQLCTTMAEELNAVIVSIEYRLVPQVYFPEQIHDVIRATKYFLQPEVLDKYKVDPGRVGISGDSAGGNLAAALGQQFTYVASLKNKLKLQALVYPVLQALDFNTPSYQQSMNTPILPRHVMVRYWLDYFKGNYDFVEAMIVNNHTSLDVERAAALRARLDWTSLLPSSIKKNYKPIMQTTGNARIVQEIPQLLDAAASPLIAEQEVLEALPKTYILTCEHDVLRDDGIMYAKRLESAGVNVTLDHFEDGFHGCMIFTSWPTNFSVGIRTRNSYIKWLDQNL", "assay": "Gel-based competitive ABPP", "assay_type": "biochemical"}, "[10]": {"tested_on": "C20:4 LPA hydrolytic activity of mouse brain proteomes", "assay_type": "biochemical", "details": "inhibitor 1 μM, 30 min, 37°C"}}, "data": [{"smiles": "CCOP(=S)(OCC)Oc1nc(Cl)c(Cl)cc1Cl", "note": "[CPF, chlorpyrifos]", "values": [{"measurement": "additional serine hydrolases not found in the brain (AADAC, CES1, CES1F, CES2, CES2B, CES2G, CES3, CES5, CES6, ES22, BChE) in peripheral tissues", "setting": "[1]; CPF-treated mice, peripheral tissues", "result": "blocked"}, {"measurement": "total number of metabolic serine hydrolases inhibited in vivo", "setting": "[1]; mice, brain and peripheral tissues, CPF 50 mg/kg ip, 4 h", "result": "twenty-one"}]}, {"smiles": "CCOP(=O)(OCC)Oc1nc(Cl)c(Cl)cc1Cl", "note": "[CPO, chlorpyrifos-oxon]", "values": [{"measurement": "IC50 compared to that of ACHE", "setting": "[2]", "result": "equivalent or lower"}, {"measurement": "IC50 compared to that of ACHE", "setting": "[3]", "result": "equivalent or lower"}, {"measurement": "IC50 compared to that of ACHE", "setting": "[4]", "result": "equivalent or lower"}, {"measurement": "IC50 compared to that of ACHE", "setting": "[5]", "result": "equivalent or lower"}, {"measurement": "IC50 compared to that of ACHE", "setting": "[6]", "result": "equivalent or lower"}, {"measurement": "IC50 compared to that of ACHE", "setting": "[7]", "result": "comparable"}, {"measurement": "IC50 compared to that of ACHE", "setting": "[8]", "result": "comparable"}, {"measurement": "IC50 compared to that of ACHE", "setting": "[9]", "result": "comparable"}]}, {"smiles": "O=C(Oc1ccc([N+](=O)[O-])cc1)N1CCC(C(O)(c2ccc3c(c2)OCO3)c2ccc3c(c2)OCO3)CC1", "note": "[JZL184]", "values": [{"measurement": "C20:4 LPA hydrolytic activity (C20:4 FFA release)", "setting": "[10]", "result": "inhibits"}]}, {"smiles": "O=C(Oc1ccc([N+](=O)[O-])cc1)N1CCN(Cc2cccc(Oc3ccccc3)c2)CC1", "note": "[JZL195]", "values": [{"measurement": "C20:4 LPA hydrolytic activity (C20:4 FFA release)", "setting": "[10]", "result": "inhibits"}]}]}
